Patent publication US20110034472A1, “Novel Compounds for Treatment of Cancer and Disorders Associated With Angiogenesis Function” (UNIVERSITY OF SOUTHERN CALIFORNIA, priority 2004, published 2011)
Read-outs that look alike come from different tables or passages of the source.

Legend:
[1] = test system: MCF-7 breast cancer cells; assay: MTT cytotoxicity assay, MCF-7; type: cell-based, human; conditions: for IC50: MCF7, 72 hours continuous exposure, read-out: IC50 values (mean ± SD); for CC50: MTT-assay, read-out: CC50 values (mean ± SD)
Protocol: (§1) The sensitivity of a panel of seven human cancer cell lines to SC144 was assessed by MTT-assay. […] The sensitivity towards SC144 was time- and dose-dependent.
(§2) Cytotoxicity was assessed by a 3-(4,5-dimethylthiazol-2-yl)-2,5-diphenyltetrazolium bromide assay as previously described (Carmichael et al. (1987) Cancer Res. 47:936-42). Briefly, cells were seeded in 96-well microtiter plates (PC3 and DU145 at 5,000 cells/well and LNCaP at 10,000 cells/well; breast and ovarian cells at 4,000 cells/well) and allowed to attach. Cells were subsequently treated with a continuous exposure to the corresponding drug for 72 hours. A 3-(4,5-dimethylthiazol-2-yl)-2,5-diphenyltetrazolium bromide solution (at a final concentration of 0.5 mg/mL) was added to each well and cells were incubated for 4 hours at 37° C. After removal of the medium, DMSO was added and the absorbance was read at 570 nm. All assays were done in triplicate. The IC50 was then determined for each drug from a plot of log(drug concentration) versus percentage of cell kill.

[2] = test system: PC3 prostate cancer cells; assay: MTT cytotoxicity assay, PC3; type: cell-based; conditions: Homo sapiens
Protocol: as §1, §2

[3] = test system: DU145 prostate cancer cells; assay: MTT cytotoxicity assay, DU145; type: cell-based; conditions: Homo sapiens; for IC50: DU-145, 72 hours continuous exposure, read-out: IC50 values (mean ± SD)
Protocol: as §1, §2

[4] = test system: CEM or HEY cells; assay: Cytotoxicity of salicylhydrazides (Table 5); type: cell-based; conditions: Homo sapiens
Description: Human prostate cancer cells (PC3, p53 null, AR−; DU145, p53 mutant, AR−; and LNCaP, p53 wild-type, AR+) and breast cancer cells (MCF-7, overexpressed wild-type p53, ER+; MDA-MB-468, p53 mutant, […]; and MDA-MB-435, p53 mutant, ER−) were obtained from American Type Cell Culture (Manassas, Va.). The human ovarian carcinoma cell line (HEY) naturally resistant to cisplatin (CDDP) was kindly provided by Dr. Dubeau (University of Southern California Norris Cancer Center; Buick et al. (1985) Cancer Res. 45:3668-76 and Hamaguchi et al. (1993) Cancer Res. 53:5225-32). The results with CEM cells were previously described (Neamati et al. (1998) J. Med. Chem. 41:3202-9). Cells were maintained as monolayer cultures in RPMI 1640 supplemented with 10% fetal bovine serum (Gemini-Bioproducts, Woodland, Calif.) and 2 mmol/L L-glutamine at 37° C. in a humidified atmosphere of 5% CO2. To remove the adherent cells from the flask for passaging and counting, cells were washed with PBS without calcium or magnesium, incubated with a small volume of 0.25% trypsin-EDTA solution (Sigma-Aldrich, St. Louis, Mo.) for 5 to 10 minutes, and washed with culture medium and centrifuged. All experiments were done using cells in exponential cell growth.
as §2

[5] = test system: HEY ovarian cancer cells; assay: MTT cytotoxicity assay, HEY; type: cell-based, human; conditions: Homo sapiens, HEY; for IC50: 72 hours continuous exposure, read-out: IC50 values (mean ± SD)
Protocol: as §1, §2

[6] = test system: MDA-MB-435 breast cancer cells; assay: MTT cytotoxicity assay, MDA-MB-435; type: cell-based, human; conditions: Homo sapiens
Protocol: as §1, §2
(§3) Cytotoxicity was assessed by a 3-(4,5-dimethylthiazol-2-yl)-2,5-diphenyltetrazolium bromide (MTT) assay as previously described.^9 Briefly, cells were seeded in 96-well microtiter plates and allowed to attach. Cells were subsequently treated with continuous exposure to the corresponding drug for 72 h. An MTT solution (at a final concentration of 0.5 mg/mL) was added to each well, and cells were incubated for 4 h at 37° C. After removal of the medium, DMSO was added and the absorbance was read at 570 nm. All assays were done in triplicate. The IC50 was then determined for each drug from a plot of log (drug concentration) versus percentage of cells killed.

[7] = test system: LNCaP prostate cancer cells; assay: MTT cytotoxicity assay, LNCaP; type: cell-based; conditions: Homo sapiens
Protocol: as §2, §3

[8] = test system: MDA-MB-468 breast cancer cells; assay: MTT cytotoxicity assay, MDA-MB-468; type: cell-based; conditions: Homo sapiens; for IC50: 72 hours continuous exposure, read-out: IC50 values (mean ± SD)
Protocol: as §1, §2

[9] = test system: MDA-MB-435 cells; assay: MTT assay, continuous drug exposure for 48 hours (Table 3); type: cell-based, human; conditions: for IC80: MDA-MB-435, read-out: CC80
[10] = test system: EKVX non-small cell lung cancer cells; assay: Sensitivity of various cancer cells to SC144, EKVX; type: cell-based; conditions: Homo sapiens
Description: (§4) The studies were expanded to other cell lines. […] Subnanomolar to low nanomolar potency was also observed in HCT-116 and HT29 colon cancer cell lines (Table 2).

[11] = test system: MCF-7/ADR breast cancer cells; assay: MTT cytotoxicity assay, MCF-7/ADR; type: cell-based; conditions: Homo sapiens, NCI/ADR-RES, read-out: CC50 values (mean ± SD)
Protocol: as §1

[12] = test system: MDA-MB-435 cells; assay: Flow cytometric cell cycle analysis, SC144; type: cell-based, human; conditions: 24 h of treatment, SC144 3 uM
Description: Similar effects were obtained on the asynchronous prostate cancer cell line DU145.

[13] = test system: HOP-62 non-small cell lung cancer cells; assay: Sensitivity of various cancer cells to SC144, HOP-62; type: cell-based; conditions: Homo sapiens
Description: as §4

[14] = PC-3, PC3 cells, read-out: IC50 value
[15] = PC3, 72 hours continuous exposure, read-out: IC50 values (mean ± SD)
[16] = 72 hours continuous exposure, read-out: IC50 values (mean ± SD)
[17] = MTT-assay, read-out: CC50 values (mean ± SD)

SMILES	IC50 ([1]; Homo sapiens, MCF-7)	IC50 [2, 14]	IC50 [2, 15]	IC50 [3]	IC50 [4]	IC50 [5]	IC50 [6, 16]	IC50 [7, 16]	IC50 [8]	IC80 ([9]; Homo sapiens)	further results
O=C(NNC(=O)c1ccccc1O)C1=CC2C=CC=CC2C=C1O (stereo not drawn) [SC21]	40 ± 7 nM	3200 ± 200 nM	3250 nM	120 ± 50 nM	400 ± 60 nM	400 ± 60 nM	35 ± 7 nM	200 ± 70 nM	200 ± 2 nM		
O=C(NNC(O)c1cc2ccccc2cc1O)c1cc2ccccc2cc1O (stereo not drawn) [SC23]	280 ± 35 nM	2000 ± 500 nM	2000 nM	50 ± 19 nM	2300 ± 200 nM	2350 nM	240 ± 28 nM	850 ± 200 nM	50 ± 14 nM	0.1 ± 0.01 µM	CC50 [9]: 40 ± 7 nM
O=C(NNc1nc2cc(F)ccc2n2cccc12)c1cnccn1 [SC144, Pyrazine-2-carboxylic acid N′-(7-fluoro-pyrrolo[1,2-a]quinoxalin-4-yl)-hydrazide]										10 ± 0.01 µM	CC50 ([1]; Homo sapiens, MCF7, MCF-7): 1700 ± 300 nM; CC50 ([1]; MCF-7): 2000 ± 300 nM; CC50 ([2]; PC3, MTT-assay, read-out: CC50 values (mean ± SD)): 10 ± 0.2 µM; CC50 ([3]; DU-145, MTT-assay, read-out: CC50 values (mean ± SD)): 3000 ± 300 nM; CC50 [10]: 10 nM; CC50 [11]: 2500 ± 1000 nM; cells retained in S-phase [12]: 80%; CC50 ([9]; Homo sapiens, MDA-MB-435): 4000 ± 1400 nM; CC50 [5, 17]: 1000 ± 60 nM; IC50 ([6]; MTT, 72 h, read-out: IC50): 4000 ± 100 nM; CC50 [6, 17]: 4 ± 1.4 µM; IC50 ([7]; hLNCaP, MTT, 72 h, read-out: IC50): 400 ± 60 nM; CC50 ([13]; HOP-62, read-out: CC50): 10 nM; CC50 ([13]; non-small cell lung cancer cells HOP-62, EKVX, and HOP-92, read-out: CC50 values range): 10 to 20 nM; CC50 [8, 17]: 700 ± 100 nM
